# Reference: article doi:10.1101/2024.07.21.604522v1 (biorxiv, 2024)
# Molecular target: T1, human ChaC1 (ChaC1p) (Homo sapiens, UniProt Q9BUX1)
# T1 sequence (Q9BUX1 1-222): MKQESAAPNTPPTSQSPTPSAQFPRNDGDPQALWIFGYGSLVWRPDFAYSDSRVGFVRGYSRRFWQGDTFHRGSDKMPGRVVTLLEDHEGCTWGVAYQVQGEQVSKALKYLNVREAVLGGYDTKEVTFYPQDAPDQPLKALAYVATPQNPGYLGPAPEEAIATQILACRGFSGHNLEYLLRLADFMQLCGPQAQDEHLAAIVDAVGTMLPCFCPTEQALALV
# Assay: ChaC1p-Dug1p coupled assay, cysteine by ninhydrin
# Type: biochemical
structure (smiles),measurement,value
O=C1C=CC(=O)c2c(O)cccc21 [juglone],IC50,8.7 µM
